Measured values published in patent EP0164700B1, “Bis(beta-hydroxy phenethyl)amines” (BEECHAM GROUP PLC, priority 1984, dated 1985).
Structures can show the parent of a compound that is named as a salt. Where two headings read alike, the source gives them in different places.

Experiments:
Assay type in all cases: in vivo
Female CFLP mice = experiment: Anti-hyperglycaemic activity (glucose tolerance after subcutaneous glucose load); conditions: 24 h fasted mice, glucose 1 g/kg s.c. 30 min after dosing, 2 hour period, compared with water controls
Experimental: Female CFLP mice, weighing approximately 25 g, were fasted for 24 hours prior to the study. The compound under study was administered orally as an aqueous solution to each of 6 mice. 30 minutes later a blood sample (10 µl) was obtained from the tail for the analysis of blood glucose. Immediately after taking this blood sample, glucose (1 g/kg body weight) was administered subcutaneously to each mouse. 6 mice were given water as a control. Blood samples were then obtained from each mouse at 30 minute intervals for 120 minutes.
Compounds that produce a significant (P<0.05) reduction of blood glucose, compared with control mice given water, at any time interval, are considered active. The area under the blood glucose curve over the 2 hour period after the administration of the glucose was calculated for the compounds and compared with the value for control animals.

Male Sprague-Dawley rats = experiment: Effect on energy expenditure of rats; conditions: Rattus norvegicus, po; for response vs control in vivo at 0.57 mg/kg: dose 0.57 mg/kg p.o.; for response vs control in vivo at 0.57 mg/kg / response vs control in vivo at 10.3 mg/kg / response vs control in vivo at 5.8 mg/kg / response vs control in vivo at 26.4 mg/kg / response vs control in vivo at 9.4 mg/kg / response vs control in vivo at 10.4 mg/kg / response vs control in vivo at 4.73 mg/kg: percentage of the rate of energy expenditure of the rats dosed with water, fasted rats; for response vs control in vivo at 10.3 mg/kg: dose 10.3 mg/kg p.o.; for response vs control in vivo at 5.8 mg/kg: dose 5.8 mg/kg p.o.; for response vs control in vivo at 26.4 mg/kg: dose 26.4 mg/kg p.o.; for response vs control in vivo at 9.4 mg/kg: dose 9.4 mg/kg p.o.; for response vs control in vivo at 10.4 mg/kg: dose 10.4 mg/kg p.o.; for response vs control in vivo at 4.73 mg/kg: dose 4.73 mg/kg p.o.
Experimental: Male Sprague-Dawley rats each weighing between 170-200 g were deprived of food for 16 hours before, and during the experiment. Water was provided ab lib at all times. The compounds were administered orally in water to 3 or 4 rats. A further 4 rats were dosed orally with water. The rats were placed in boxes through which air was drawn and the oxygen content of the air leaving the boxes was measured. The energy expenditure of the rats was calculated for 3 hours and for 21 hours after dosing from the volume of air leaving the boxes and its oxygen content, following the pinciples described by J. B. de V. Weir, J. Physiol. (London) 109, 1-9 (1949). The results are expressed as a percentage of the rate of energy expenditure of the rats dosed with water.

Female BALB/c mice = experiment: Anti-obesity activity (weight of parametrial fat pads); conditions: 5.8 mg/kg of diet, added to the diet for 3 days, treated animals compared with controls, mean of 9 values
Experimental: Female BALB/c mice were trained to feed on powdered oxoid for 1 week. They were then housed in threes and the compound under study was added to the diet for 3 days. Food was removed at 09.00h and the mice were killed at 11.00h. The parmetrial fat pads were weighed as pairs. The result is a mean of 9 values.
The compound of Example Number 3 gave a 38% reduction in weight of perigenital adipose tissue in. treated animals compared with controls when given at a dose of 5.8 mg/kg of diet.

[1] = 3 h, read-out: Mean Energy Expenditure (0—3h)
[2] = 21 h, read-out: Mean Energy Expenditure (9—21h)

SMILES: COC(=O)COc1ccc(CC(C)N(CC(O)c2cccc(Cl)c2)CC(O)c2cccc(Cl)c2)cc1.Cl.O (stereo not drawn) [Example 1, Methyl 4-[2-[bis-[β-hydroxy-3-chlorophenethyl]amino]propyl]phenoxyacetate hydrochloride monohydrate]
- % Reduction in area under Blood Glucose Curve (Female CFLP mice; dose 5 µmol/kg orally): 55%
- response vs control in vivo at 0.57 mg/kg (Male Sprague-Dawley rats; [1]): 132%
- response vs control in vivo at 0.57 mg/kg (Male Sprague-Dawley rats; [2]): 110%

SMILES: CCOC(=O)COc1ccc(C[C@@H](C)N(C[C@H](O)c2ccccc2)C[C@H](O)c2ccccc2)cc1.Cl [Example 2, Ethyl 4-[(R)-2-[bis-[(R)-β-hydroxyphenethyl]amino]propyl]phenoxyacetate hydrochloride]
- % Reduction in area under Blood Glucose Curve (Female CFLP mice; dose 2.5 µmol/kg orally): 52%
- response vs control in vivo at 10.3 mg/kg (Male Sprague-Dawley rats; [1]): 146%
- response vs control in vivo at 10.3 mg/kg (Male Sprague-Dawley rats; [2]): 143%

SMILES: CCOC(=O)COc1ccc(C[C@@H](C)N(C[C@H](O)c2cccc(Cl)c2)C[C@H](O)c2cccc(Cl)c2)cc1.Cl [Example 3, Ethyl 4-[(R)-2-[bis-[(R)-β-hydroxy-3-chlorophenethyl]amino]propyl]phenoxyacetate hydrochloride]
- response vs control in vivo at 5.8 mg/kg (Male Sprague-Dawley rats; [1]): 144%
- response vs control in vivo at 5.8 mg/kg (Male Sprague-Dawley rats; [2]): 132%
- reduction in weight of perigenital adipose tissue (Female BALB/c mice): 38%

SMILES: CCOC(=O)COc1ccc(CC[C@@H](C)N(C[C@H](O)c2ccccc2)C[C@H](O)c2ccccc2)cc1.Cl [Example 4, Ethyl 4-[(R)-3-[bis-[(R)-β-hydroxyphenethyl]amino]butyl]phenoxyacetate hydrochloride]
- % Reduction in area under Blood Glucose Curve (Female CFLP mice; dose 12.5 µmol/kg orally): 42%
- response vs control in vivo at 26.4 mg/kg (Male Sprague-Dawley rats; [1]): 111%
- response vs control in vivo at 26.4 mg/kg (Male Sprague-Dawley rats; [2]): 99%

SMILES: C[C@H](Cc1ccc(OCCO)cc1)N(C[C@H](O)c1ccccc1)C[C@H](O)c1ccccc1 [Example 5, 4-[(R)-2-[bis-[(R)-β-hydroxyphenethyl]amino]propyl]phenoxyethanol hydrochloride]
- % Reduction in area under Blood Glucose Curve (Female CFLP mice; dose 2.5 µmol/kg orally): 54%
- response vs control in vivo at 9.4 mg/kg (Male Sprague-Dawley rats; [1]): 159%
- response vs control in vivo at 9.4 mg/kg (Male Sprague-Dawley rats; [2]): 152%

SMILES: CNC(=O)COc1ccc(C[C@@H](C)N(C[C@H](O)c2ccccc2)C[C@H](O)c2ccccc2)cc1.Cl [Example 6, N-Methyl 4-[(R)-2-[bis-[(R)-β-hydroxyphenethyl]amino]propyl]phenoxyacetamide hydrochloride]
- % Reduction in area under Blood Glucose Curve (Female CFLP mice; dose 2.5 µmol/kg orally): 52%
- response vs control in vivo at 10 mg/kg (Male Sprague-Dawley rats; [1]): 154%
- response vs control in vivo at 10 mg/kg (Male Sprague-Dawley rats; [2]): 147%

SMILES: CNCCOc1ccc(C[C@@H](C)N(C[C@H](O)c2ccccc2)C[C@H](O)c2ccccc2)cc1 [Example 7, N-Methyl 4-[(R)-2-[bis-[(R)-β-hydroxyphenethyl]amino]propyl]phenoxy ethylamine dihydrochloride]
- % Reduction in area under Blood Glucose Curve (Female CFLP mice; dose 2.5 µmol/kg orally): 50%
- response vs control in vivo at 10.4 mg/kg (Male Sprague-Dawley rats; [1]): 145%
- response vs control in vivo at 10.4 mg/kg (Male Sprague-Dawley rats; [2]): 146%

SMILES: C[C@H](COc1ccc(OCC(N)=O)cc1)N(C[C@H](O)c1ccccc1)C[C@H](O)c1ccccc1 [Example 8, 4-[(R)-2-[bis-[(R)-β-hydroxyphenethyl]amino]propoxy]phenoxyacetamide hydrochloride]
- response vs control in vivo at 4.73 mg/kg (Male Sprague-Dawley rats; [1]): 113%
- response vs control in vivo at 4.73 mg/kg (Male Sprague-Dawley rats; [2]): 103%
